# Test results from US20180200257A1, “METHODS FOR THE TREATMENT OF INFLAMMATORY DISORDERS” (Galapagos NV, priority 2015, published 2018).
# System: subjects with moderately to severely active RA who have an inadequate response to methotrexate (MTX)
# Assay: Study 1 (add-on to MTX) - ACR responses (ACR20/50/70)
# Assay type: in vivo, human
# Text: The terms “ACR20”, “ACR50” and “ACR70” as used herein are scores which indicate how much a patient's rheumatoid arthritis has improved according to criteria set out by the American College of Rheumatology (ACR). The ACR score represents a percentage. An ACR20 score means that a person's RA has improved by 20%, an ACR50 score means it has improved by 50%, and an ACR70 score means it has improved by 70%. Specifically, to qualify for an ACR20 score, a person with RA must have at least 20% fewer tender joints and at least 20% fewer swollen joints. In addition the patient must show a 20% improvement in at least three of the following five areas: the person's overall (global) assessment of his or her own RA, the physician's global assessment of the person's RA, the person's assessment of his or her own pain, the person's assessment of his or her own physical functioning, and the results of an erythrocyte sedimentation rate or C-reactive protein (CRP) blood test (both of which test for inflammation). ACR50 and ACR70 scores use the same criteria but require 50% and 70% improvement, respectively, (Felson et al., 1993). In the data presented herein the CRP blood test is used.
# Double-blind, placebo-controlled add on study in subjects with moderately to severely active RA who have an inadequate response to methotrexate (MTX) (oral or parenteral).
# 595 subjects randomized to one of 6 dose regimens of Compound 1 (dosed as [Compound 1:HCl:3H2O]) (3 dose levels administered either once or twice daily) or placebo on top of each subject's stable dose of MTX.
# Compound 1 (dosed as [Compound 1:HCl:3H2O]) is dosed for twelve weeks once daily (q.d.) (50 mg, 100 mg or 200 mg) or twice daily (b.i.d.) (25 mg, 50 mg or 100 mg); or placebo.
# At Week 12, the subjects on placebo who have not achieved 20% improvement in swollen joint count (SJC66) and tender joint count (TJC68) are re-randomized automatically to receive Compound 1 (dosed as a [Compound 1:HCl:3H2O]) either at 100 mg q.d. or 50 mg b.i.d. doses in a blinded fashion; subjects on 50 mg q.d. who have not achieved 20% improvement in SJC66 and TJC68 will be assigned to 100 mg q.d. and subjects on 25 mg b.i.d. that have not achieved a 20% improvement in SJC66 and TJC68 will be assigned to 50 mg b.i.d. Subjects who switch treatment at week 12 are handled as if they discontinued at week 12 for the purpose of statistical analysis, whereas subjects in the other groups will maintain their randomized treatment until Week 24.
# The American College of Rheumatology (ACR) composite score, which evaluates clinical improvement relative to an initial assessment, is a commonly accepted efficacy end point for clinical trials in patients with rheumatoid arthritis. The ACR score correspond to a percentage improvement in pre-set parameters, and therefore measures the evolution of the disease in a patient. For example, ACR20 denotes at least 20% improvement in tender and swollen joint counts and in three of the following end points: global assessment by the patient, global assessment by the doctor, C reactive protein (CRP), patient's pain Visual Analogue Scale and Health Assessment Questionnaire Score. The number of swollen joints, ESR and CRP correlate with radiographic progression of joint damage, whereas tender joint counts, as well as global assessments by doctors and patients, and patients' reports of pain, are sensitive to change in clinical outcomes. Physical function, as assessed by the Health Assessment Questionnaire Score, is a potent predictor of the risk of disability in rheumatoid arthritis (Felson and American College of Rheumatology Committee to Reevaluate Improvement Criteria, 2007; Felson et al., 1993).
# In particular, the list of parameters used to assess ACR score can be found in the Table XCVI below and the results of the ACR responses at week 12 via either NRI or LOCF are shown in the tables below. The Hommel-corrected p-value for the pairwise comparisons of each group with placebo is shown. […]
# [1] = 100 mg q.d., week 12, 12 weeks results
# [2] = 100 mg q.d., week 12, 24 weeks results
# [3] = 100 mg q.d., week 16, 24 weeks results
# [4] = 100 mg q.d., week 20, 24 weeks results
# [5] = 100 mg q.d., week 24, 24 weeks results
# [6] = 100 mg q.d., at week 1, 12 weeks results
# [7] = 100 mg q.d., at week 1, 24 weeks results
# [8] = 100 mg q.d., week 8, 12 weeks results
# [9] = 200 mg q.d., week 2, 12 weeks results
# [10] = 200 mg q.d., week 2, 24 weeks results
# [11] = 200 mg q.d., week 4, 12 weeks results
# [12] = 200 mg q.d., week 4, 24 weeks results
# [13] = 200 mg q.d., week 8, 24 weeks results
# [14] = 200 mg q.d., week 12, 12 weeks results
# [15] = 200 mg q.d., week 12, 24 weeks results
# [16] = 200 mg q.d., week 16, 24 weeks results
# [17] = 200 mg q.d., week 20, 24 weeks results
# [18] = 200 mg q.d., week 24, 24 weeks results
# [19] = 200 mg q.d., at week 1, 12 weeks results
# [20] = 200 mg q.d., at week 1, 24 weeks results
# [21] = 200 mg q.d., week 8, 12 weeks results
structure (smiles),measurement,setting,value
"O=C(Nc1nc2cccc(-c3ccc(CN4CCS(=O)(=O)CC4)cc3)n2n1)C1CC1 [Compound 1, cyclopropanecarboxylic acid {5-[4-(1,1-dioxo-thiomorpholin-4-ylmethyl)-phenyl]-[1,2,4]triazolo[1,5-a]pyridin-2-yl}-amide]",ACR70 (LOCF),[1],22.4%
same,ACR70 (NRI),[1],20.0%
same,ACR20 (LOCF),[2],67.1%
same,ACR20 (NRI),[2],62.4%
same,ACR50 (LOCF),[2],41.2%
same,ACR50 (NRI),[2],38.8%
same,ACR70 (LOCF),[2],22.4%
same,ACR70 (NRI),[2],20.0%
same,ACR20 (LOCF),[3],69.4%
same,ACR20 (NRI),[3],64.7%
same,ACR50 (LOCF),[3],55.3%
same,ACR70 (LOCF),[3],27.1%
same,ACR20 (LOCF),[4],76.5%
same,ACR20 (NRI),[4],69.4%
same,ACR50 (LOCF),[4],50.6%
same,ACR70 (LOCF),[4],32.9%
same,ACR20 (LOCF),[5],72.9%
same,ACR20 (NRI),[5],60.0%
same,ACR50 (LOCF),[5],54.1%
same,ACR70 (LOCF),[5],37.6%
same,ACR20 (LOCF),[6],32.9%
same,ACR20 (NRI),[6],34.1%
same,ACR50 (LOCF),[6],5.9%
same,ACR50 (NRI),[6],5.9%
same,ACR70 (LOCF),[6],0.0%
same,ACR70 (NRI),[6],0.0%
same,ACR20 (LOCF),[7],34.1%
same,ACR20 (NRI),[7],34.1%
same,ACR50 (LOCF),[7],5.9%
same,ACR50 (NRI),[7],5.9%
same,ACR70 (LOCF),[7],0.0%
same,ACR70 (NRI),[7],0.00%
same,ACR20 (LOCF),[8],63.5%
same,ACR20 (NRI),[8],63.5%
same,ACR50 (LOCF),[8],35.3%
same,ACR50 (NRI),[8],34.1%
same,ACR70 (LOCF),[8],23.5%
same,ACR70 (NRI),[8],22.4%
same,ACR20 (LOCF),[9],48.8%
same,ACR20 (NRI),[9],48.8%
same,ACR50 (LOCF),[9],11.6%
same,ACR50 (NRI),[9],11.6%
same,ACR70 (LOCF),[9],5.8%
same,ACR70 (NRI),[9],5.8%
same,ACR20 (LOCF),[10],48.8%
same,ACR20 (NRI),[10],48.8%
same,ACR50 (LOCF),[10],11.6%
same,ACR50 (NRI),[10],11.6%
same,ACR70 (LOCF),[10],5.8%
same,ACR70 (NRI),[10],5.8%
same,ACR20 (LOCF),[11],55.8%
same,ACR20 (NRI),[11],55.8%
same,ACR50 (LOCF),[11],16.3%
same,ACR50 (NRI),[11],17.4%
same,ACR70 (LOCF),[11],4.7%
same,ACR70 (NRI),[11],4.7%
same,ACR20 (LOCF),[12],55.8%
same,ACR20 (NRI),[12],55.8%
same,ACR50 (LOCF),[12],17.4%
same,ACR50 (NRI),[12],17.4%
same,ACR70 (LOCF),[12],4.7%
same,ACR70 (NRI),[12],4.7%
same,ACR20 (LOCF),[13],69.8%
same,ACR20 (NRI),[13],69.8%
same,ACR50 (LOCF),[13],34.9%
same,ACR50 (NRI),[13],34.9%
same,ACR70 (LOCF),[13],18.6%
same,ACR70 (NRI),[13],18.6%
same,ACR20 (LOCF),[14],70.9%
same,ACR20 (NRI),[14],68.6%
same,ACR50 (LOCF),[14],44.2%
same,ACR50 (NRI),[14],43.0%
same,ACR70 (LOCF),[14],24.4%
same,ACR70 (NRI),[14],24.4%
same,ACR20 (LOCF),[15],70.9%
same,ACR20 (NRI),[15],69.8%
same,ACR50 (LOCF),[15],44.2%
same,ACR50 (NRI),[15],43.0%
same,ACR70 (LOCF),[15],24.4%
same,ACR70 (NRI),[15],24.4%
same,ACR20 (LOCF),[16],74.4%
same,ACR20 (NRI),[16],73.3%
same,ACR50 (LOCF),[16],50.0%
same,ACR70 (LOCF),[16],26.7%
same,ACR20 (LOCF),[17],76.7%
same,ACR20 (NRI),[17],73.3%
same,ACR50 (LOCF),[17],54.7%
same,ACR70 (LOCF),[17],24.4%
same,ACR20 (LOCF),[18],77.9%
same,ACR20 (NRI),[18],73.3%
same,ACR50 (LOCF),[18],54.7%
same,ACR70 (LOCF),[18],31.4%
same,ACR20 (LOCF),[19],25.6%
same,ACR20 (NRI),[19],27.9%
same,ACR50 (LOCF),[19],4.7%
same,ACR50 (NRI),[19],4.7%
same,ACR70 (LOCF),[19],1.2%
same,ACR70 (NRI),[19],1.2%
same,ACR20 (LOCF),[20],27.9%
same,ACR20 (NRI),[20],27.9%
same,ACR50 (LOCF),[20],4.7%
same,ACR50 (NRI),[20],4.7%
same,ACR70 (LOCF),[20],1.2%
same,ACR70 (NRI),[20],1.2%
same,ACR20 (LOCF),[21],68.6%
same,ACR20 (NRI),[21],68.6%
same,ACR50 (LOCF),[21],33.7%
same,ACR50 (NRI),[21],33.7%
same,ACR70 (LOCF),[21],18.6%
